Tested on: breast capsular contracture
Test: Clinical cases: topical treatment of breast capsular contracture (Baker grade)
Assay type: in vivo, human
Conditions: Patient #1, Aleve and massage after first revision (bilateral Grade 3 capsular contracture)
From the text: The methods of the present invention for prevention of capsular contracture comprise topical application of the composition using the following steps: • Wash and dry the affected area (that is, the skin surrounding the implant or the skin over the capsular contracture) prior to use. • Apply the composition daily (use sparingly) with vigorous massage to affected area. If necessary, exert compression or pressure when massaging to break up existing capsule. Enhanced absorption is obtained with application of the composition following a hot shower. Occlusive dressing (hydrogel), or tight clothing (sports bras), will also enhance the result. Continued daily use will yield optimal results. […] Optimal results are best maintained with daily continued application. One particularly useful embodiment of the invention involves the use of the topical compositions for the treatment/prevention of capsular contracture in breast surgery (e.g., breast implants). There are four grades of breast capsular contracture—Baker grades I through IV. The Baker grading is as follows: • Grade I—the breast is normally soft and looks natural • Grade II—the breast is a little firm but looks normal • Grade III—the breast is firm and looks abnormal • Grade IV—the breast is hard, painful, and looks abnormal. • of developed or is at risk of developing capsular contracture a topical composition. Clinical Cases Patient #1

COc1ccc2cc([C@H](C)C(=O)O)ccc2c1 [Aleve, naproxen sodium]
response of capsular contracture to treatment: without result

— US8409600B2, “Methods for prevention and/or treatment of capsular contracture” (J&E Solutions, LLC, priority 2009, dated 2013)
